Values quoted from earlier work as cited in patent publication US20120028902A1, “PEPTIDE AVAILABILITY” (priority 2008, published 2012).

## CC[C@H](C)[C@H](N)C(=O)N1CCC[C@H]1C(=O)N1CCC[C@H]1C(=O)O [IPP, isoleucine-proline-proline]
Yoghurt drink consumed with breakfast, versus fasted state
  Further increase of plasma IPP AUC when consumed with the meal: 30%
Yoghurt drink drunk in overnight fasted state 30 min prior to breakfast
  Increase of plasma IPP level (area under the concentration vs. time curve) compared to a control drink: more than two-fold
